± gives the standard deviation of the averaged measurements.
How the values were obtained:
RESVERATROL = compound: Oc1ccc(/C=C/c2cc(O)cc(O)c2)cc1 [RESVERATROL]; assay: surviving fraction relative to DMSO-only wells; higher = less growth inhibition; details: exposure time: 5 days
Outline: (§1)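 Lines were retained only if, across three screens, replicate Pearson r was >0.7 and median Z' was >0.3. Viability was measured as CellTiter-Glo luminescence and reported as surviving fraction relative to the median of DMSO-only wells. Readings followed 10 minutes at room temperature, after log-phase tumour cells seeded at 250–500 per well in 384-well plates had been exposed, from 24 hours after seeding, continuously for five days to inhibitors at 0.5, 1, 5, 10, 50, 100, 500 and 1000 nM.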

NUTLIN3 = compound: COc1ccc(C2=N[C@@H](c3ccc(Cl)cc3)[C@@H](c3ccc(Cl)cc3)N2C(=O)N2CCNC(=O)C2)c(OC(C)C)c1 [NUTLIN3]; assay: as above; details: exposure time: 5 days
Outline: as §1

SYO1 SYNOVIAL was tested, and the surviving fraction (RESVERATROL; 0.5 nM) was 0.975 ± 0.062, the surviving fraction (RESVERATROL; 1 nM) was 0.996 ± 0.027 and the surviving fraction (RESVERATROL; 5 nM) was 0.996 ± 0.04. The surviving fraction (RESVERATROL; 10 nM) was 0.991 ± 0.044, the surviving fraction (RESVERATROL; 50 nM) was 0.974 ± 0.045 and the surviving fraction (RESVERATROL; 100 nM) was 1.01 ± 0.038. The surviving fraction (RESVERATROL; 500 nM) was 0.987 ± 0.039, the surviving fraction (RESVERATROL; 1000 nM) was 1.01 ± 0.051 and the surviving fraction (NUTLIN3; 0.5 nM) was 1.01 ± 0.039. The surviving fraction (NUTLIN3; 1 nM) was 0.997 ± 0.038, the surviving fraction (NUTLIN3; 5 nM) was 0.993 ± 0.019 and the surviving fraction (NUTLIN3; 10 nM) was 0.979 ± 0.036. It also gave a surviving fraction (NUTLIN3; 50 nM) of 0.977 ± 0.042, a surviving fraction (NUTLIN3; 100 nM) of 0.934 ± 0.048 and a surviving fraction (NUTLIN3; 500 nM) of 0.588 ± 0.026. It also gave a surviving fraction (NUTLIN3; 1000 nM) of 0.468 ± 0.012.
With T47D BREAST the surviving fraction (RESVERATROL; 0.5 nM) was 1.06 ± 0.011, the surviving fraction (RESVERATROL; 1 nM) was 1.1 ± 0.036 and the surviving fraction (RESVERATROL; 5 nM) was 1.11 ± 0.049. The surviving fraction (RESVERATROL; 10 nM) was 1.11 ± 0.017, the surviving fraction (RESVERATROL; 50 nM) was 0.997 ± 0.15 and the surviving fraction (RESVERATROL; 100 nM) was 1.08 ± 0.08. The surviving fraction (RESVERATROL; 500 nM) was 1.02 ± 0.15, the surviving fraction (RESVERATROL; 1000 nM) was 1.08 ± 0.16 and the surviving fraction (NUTLIN3; 0.5 nM) was 1.01 ± 0.029. It also gave a surviving fraction (NUTLIN3; 1 nM) of 0.993 ± 0.019, a surviving fraction (NUTLIN3; 5 nM) of 0.992 ± 0.043 and a surviving fraction (NUTLIN3; 10 nM) of 1.01 ± 0.051. It also gave a surviving fraction (NUTLIN3; 50 nM) of 1.07 ± 0.029, a surviving fraction (NUTLIN3; 100 nM) of 1.08 ± 0.033 and a surviving fraction (NUTLIN3; 500 nM) of 0.965 ± 0.075. For the same test system, the surviving fraction (NUTLIN3; 1000 nM) was 0.937 ± 0.024.
U2OS BONE showed a surviving fraction (RESVERATROL; 0.5 nM) of 1.06 ± 0.018, a surviving fraction (RESVERATROL; 1 nM) of 1.04 ± 0.022 and a surviving fraction (RESVERATROL; 5 nM) of 1.04 ± 0.029. For the same test system, the surviving fraction (RESVERATROL; 10 nM) was 1.06 ± 0.054, the surviving fraction (RESVERATROL; 50 nM) was 1.06 ± 0.031 and the surviving fraction (RESVERATROL; 100 nM) was 1.08 ± 0.028. It also gave a surviving fraction (RESVERATROL; 500 nM) of 1.05 ± 0.033, a surviving fraction (RESVERATROL; 1000 nM) of 1.05 ± 0.027 and a surviving fraction (NUTLIN3; 0.5 nM) of 1.02 ± 0.037. For the same test system, the surviving fraction (NUTLIN3; 1 nM) was 1.05 ± 0.037, the surviving fraction (NUTLIN3; 5 nM) was 1.04 ± 0.039 and the surviving fraction (NUTLIN3; 10 nM) was 1.02 ± 0.049. It also gave a surviving fraction (NUTLIN3; 50 nM) of 1.04 ± 0.023, a surviving fraction (NUTLIN3; 100 nM) of 1.04 ± 0.028 and a surviving fraction (NUTLIN3; 500 nM) of 0.974 ± 0.022. It also gave a surviving fraction (NUTLIN3; 1000 nM) of 0.897 ± 0.036.
In the case of VCAP PROSTATE, the surviving fraction (RESVERATROL; 0.5 nM) is reported as 1.02 ± 0.18, the surviving fraction (RESVERATROL; 1 nM) is reported as 0.812 ± 0.12 and the surviving fraction (RESVERATROL; 5 nM) is reported as 0.994 ± 0.12. The surviving fraction (RESVERATROL; 10 nM) was 1.02 ± 0.13, the surviving fraction (RESVERATROL; 50 nM) was 0.901 ± 0.061 and the surviving fraction (RESVERATROL; 100 nM) was 0.978 ± 0.017. For the same test system, the surviving fraction (RESVERATROL; 500 nM) was 0.88 ± 0.07, the surviving fraction (RESVERATROL; 1000 nM) was 0.931 ± 0.18 and the surviving fraction (NUTLIN3; 0.5 nM) was 1.03 ± 0.066. It also gave a surviving fraction (NUTLIN3; 1 nM) of 1.13 ± 0.049, a surviving fraction (NUTLIN3; 5 nM) of 1.17 ± 0.088 and a surviving fraction (NUTLIN3; 10 nM) of 1.25 ± 0.2. It also gave a surviving fraction (NUTLIN3; 50 nM) of 1.18 ± 0.24, a surviving fraction (NUTLIN3; 100 nM) of 1.18 ± 0.023 and a surviving fraction (NUTLIN3; 500 nM) of 1.03 ± 0.14. It also gave a surviving fraction (NUTLIN3; 1000 nM) of 1.11 ± 0.027.
For VP229 BREAST, the surviving fraction (RESVERATROL; 0.5 nM) was 1.19 ± 0.11, the surviving fraction (RESVERATROL; 1 nM) was 1.32 ± 0.14 and the surviving fraction (RESVERATROL; 5 nM) was 1.19 ± 0.12. For the same test system, the surviving fraction (RESVERATROL; 10 nM) was 1.2 ± 0.17, the surviving fraction (RESVERATROL; 50 nM) was 1.09 ± 0.18 and the surviving fraction (RESVERATROL; 100 nM) was 1.22 ± 0.095. The surviving fraction (RESVERATROL; 500 nM) was 1.23 ± 0.16, the surviving fraction (RESVERATROL; 1000 nM) was 1.12 ± 0.19 and the surviving fraction (NUTLIN3; 0.5 nM) was 1.16 ± 0.12. For the same test system, the surviving fraction (NUTLIN3; 1 nM) was 1.08 ± 0.21, the surviving fraction (NUTLIN3; 5 nM) was 1.21 ± 0.029 and the surviving fraction (NUTLIN3; 10 nM) was 0.944 ± 0.17. For the same test system, the surviving fraction (NUTLIN3; 50 nM) was 0.972 ± 0.065, the surviving fraction (NUTLIN3; 100 nM) was 1.04 ± 0.082 and the surviving fraction (NUTLIN3; 500 nM) was 1.13 ± 0.09. It also gave a surviving fraction (NUTLIN3; 1000 nM) of 0.975 ± 0.037.
For YAMATO SYNOVIAL, the surviving fraction (RESVERATROL; 0.5 nM) was 1.21 ± 0.063, the surviving fraction (RESVERATROL; 1 nM) was 1.28 ± 0.1 and the surviving fraction (RESVERATROL; 5 nM) was 1.34 ± 0.064. For the same test system, the surviving fraction (RESVERATROL; 10 nM) was 1.27 ± 0.18, the surviving fraction (RESVERATROL; 50 nM) was 1.32 ± 0.18 and the surviving fraction (RESVERATROL; 100 nM) was 1.31 ± 0.099. The surviving fraction (RESVERATROL; 500 nM) was 1.25 ± 0.073, the surviving fraction (RESVERATROL; 1000 nM) was 1.15 ± 0.15 and the surviving fraction (NUTLIN3; 0.5 nM) was 1.42 ± 0.029. The surviving fraction (NUTLIN3; 1 nM) was 1.32 ± 0.13, the surviving fraction (NUTLIN3; 5 nM) was 1.43 ± 0.1 and the surviving fraction (NUTLIN3; 10 nM) was 1.36 ± 0.1. The surviving fraction (NUTLIN3; 50 nM) was 1.5 ± 0.061, the surviving fraction (NUTLIN3; 100 nM) was 1.41 ± 0.15 and the surviving fraction (NUTLIN3; 500 nM) was 1.4 ± 0.086. The surviving fraction (NUTLIN3; 1000 nM) was 1.27 ± 0.13.
ZR751 BREAST showed a surviving fraction (RESVERATROL; 0.5 nM) of 0.956 ± 0.028, a surviving fraction (RESVERATROL; 1 nM) of 1.08 ± 0.069 and a surviving fraction (RESVERATROL; 5 nM) of 0.95 ± 0.07. The surviving fraction (RESVERATROL; 10 nM) was 1.01 ± 0.037, the surviving fraction (RESVERATROL; 50 nM) was 1.01 ± 0.1 and the surviving fraction (RESVERATROL; 100 nM) was 1.03 ± 0.1. It also gave a surviving fraction (RESVERATROL; 500 nM) of 0.957 ± 0.045, a surviving fraction (RESVERATROL; 1000 nM) of 1.12 ± 0.088 and a surviving fraction (NUTLIN3; 0.5 nM) of 1.26 ± 0.29. It also gave a surviving fraction (NUTLIN3; 1 nM) of 1.24 ± 0.11, a surviving fraction (NUTLIN3; 5 nM) of 1.02 ± 0.18 and a surviving fraction (NUTLIN3; 10 nM) of 1.1 ± 0.011. It also gave a surviving fraction (NUTLIN3; 50 nM) of 1.11 ± 0.054, a surviving fraction (NUTLIN3; 100 nM) of 1.08 ± 0.23 and a surviving fraction (NUTLIN3; 500 nM) of 0.786 ± 0.083. The surviving fraction (NUTLIN3; 1000 nM) was 0.747 ± 0.024.
